Converted amounts (≈) assume the structure as drawn.
How the values were obtained:
[1] = tested on: HIV; experiment: Testing of preparations against HIV in a cell culture (T-Cell culture assay); assay type: cell-based; details: Human immunodeficiency virus 1, 72 h; HIV-infected lymphocytes, 37° C. for 3 days; lowest concentration at which no giant cells occurred; read-out: T-Cell culture assay Minimum inhibitory concentration
Description: Testing of preparations against HIV in a cell culture
Description of the method
The complete medium additionally contains 20% of fetal calf serum and 40 IU/ml of recombinant interleukin 2. Cells:
Lymphocytes isolated from fresh donor blood by means of Ficol® gradient centrifugation are cultured, with addition of […] of phytohemagglutinin (Wellcome) in the complete medium at 37° C. under 5% of CO2 for 36 hours. After addition of 10% of dimethyl sulfoxide, the cells are frozen at a cell density of 5×10^6 and stored in liquid nitrogen. For the experiment, the cells are thawed, washed in RPMI medium and cultured in the complete medium for 3-4 days.
The test preparations were dissolved in dimethyl sulfoxide in a concentration of 16.7 mg/ml and diluted to 1 mg/ml in complete medium.
0.4 ml of medium was initially introduced into 24-well multiwell dishes. After addition of 0.1 ml of the dissolved preparation into the upper row of the dish, a geometric dilution series was produced by transferring in each case 0.1 ml. Preparation-free controls always contained 0.4 ml of complete medium with 0.5% of dimethyl sulfoxide.
Lymphocyte cultures having a cell count of 5×10^5 cells/ml were infected by addition of 1/50 of the volume of supernatant from HIV-infected lymphocyte cultures. The titer of these culture supernatants was determined by end point dilution with 1-5×10^6 infectious units/ml. After incubation at 37° C. for 30 minutes, the infected lymphocytes were centrifuged off and taken up again in the same volume of medium. In each case 0.6 ml of this cell suspension was introduced into each of the depression walls of the test plate. The batches were incubated at 37° C. for 3 days.
The infected cell cultures were examined under the microscope for the presence of giant cells, which indicate active multiplication of the virus in the culture. The lowest concentration of preparation at which no giant cells occurred was determined as the inhibitory concentration against HIV. As a control, the supernatants from the culture plates were investigated for the presence of the HIV antigen with the aid of an HIV antigen test in accordance with the manufacturer's information (Organon).

[2] = molecular target: T1, HIV "Reverse Transcriptase" (Human immunodeficiency virus type 1 group M subtype B, UniProt P04585); experiment: Inhibition of HIV "Reverse Transcriptase" (Scintillation Proximity Assay); assay type: biochemical; details: RT-SPA, RT from HIV cloned in E. coli, 60 minutes (37° C.)
T1 construct: purchased HT-Biotechnology Ltd., Cambridge, UK; host or cells: E. coli
Description: Investigation of the substances for inhibition of HIV "Reverse Transcriptase"
The activity of reverse transcriptase (RT) was determined with the aid of a "Scintillation Proximity Assay" (SPA). The reagent kit for the RT-SPA was obtained from Amersham/Buchler (Braunschweig). The enzyme RT (from HIV cloned in E. coli) originated from HT-Biotechnology Ltd., Cambridge, UK.
The test was carried out in accordance with the method manual of the manufacturer Amersham--with the following modifications:
bovine serum albumin was added to the "assay" buffer to the final concentration of 0.5 mg/ml.
the test was carried out in Eppendorf reaction vessels with a batch volume of […].
the RT concentrate of the manufacturer (5000 U/ml) was diluted to an activity of 15 U/ml in tris-HCl buffer 20 mM; pH 7.2; 30% of glycerol.
the incubation time for the batches was 60 minutes (37° C.).
after the reaction had been stopped and after "development" with the bead suspension, […] of the batch were transferred to 4.5 ml of tris-HCl buffer, 10 mM; pH 7.4; 0.15M NaCl, and the tritium activity was measured in a β-counter.
Testing of the substances:
For a preliminary test of the inhibitor activity, the substances were dissolved in dimethyl sulfoxide (stock solution c=1 mg/ml) and tested in a dilution in dimethyl sulfoxide of 10^-1, 10^-2, 10^-3 and the like to determine IC50 values, the inhibitor stock solutions were further diluted in tris-HCl buffer, 50 mM, pH 8 and tested in suitable concentrations. The concentration associated with 50% enzyme inhibition was determined from the graph of RT activity against Log Cinh.

Molecule | MIC [1] [µg/mL] | IC50 [2] [nM] | Reverse transcriptase assay IC50 [2] [µg/mL]
CCON=C1c2cc(Cl)ccc2NC(=O)C1(C)C [Example 2, anti-6-Chloro-3,3-dimethyl-4-(ethyloxyimino)-1,3-dihydroquinolin-2-one] | 0.2 (≈ 0.75 µM) | 82.5 | 
CCON=C1c2cc(Cl)ccc2NC(=S)C1(C)C [Example 3, anti-6-Chloro-3,3-dimethyl-4-(ethyloxyimino)-l,3-dihydroquinoline-2-thione] | 0.008 (≈ 0.0283 µM) | 14.1 | 
CCON=C1c2cc(Cl)ccc2NC(=O)C1(C)C [Example 4, syn-6-Chloro-3,3-dimethyl-4-(ethyloxyimino)-l,3-dihydroquinolin-2-one] |  | 37.5 to 375 | 
CCON=C1c2cc(Cl)ccc2NC(=S)C1(C)C [Example 5, syn-6-Chloro-3,3-dimethyl-4-(ethyloxyimino)-1,3-dihydroquinoline-2-thione] |  |  | 0.001 to 0.01
CC(C)ON=C1c2cc(Cl)ccc2NC(=O)C1(C)C [Example 6, anti-6-Chloro-3,3-dimethyl-4-(isopropyloxyimino)-l,3dihydroquinolin-2-one] | 0.008 (≈ 0.0285 µM) | 3.56 to 35.6 | 
CC(C)ON=C1c2cc(Cl)ccc2NC(=S)C1(C)C [Example 7, anti-6-Chloro-3,3-dimethyl-4-(isopropyloxyimino)-l,3-dihydroquinoline-2-thione] | 0.008 (≈ 0.027 µM) | 20.2 | 
CCCON=C1c2cc(Cl)ccc2NC(=O)C1(C)C [Example 8, anti-6-Chloro-3,3-dimethyl-4-(n-propyloxyimino)-l,3-dihydroquinolin-2-one] | 0.2 (≈ 0.712 µM) | 35.6 to 356 | 
CCCON=C1c2cc(Cl)ccc2NC(=S)C1(C)C [Example 9, anti-6-Chloro-3,3-dimethyl-4-(n-propyloxyimino)-1,3dihydroquinoline-2-thion] | 0.04 (≈ 0.135 µM) | 3.37 to 33.7 | 
CC1(C)C(=O)Nc2ccc(Cl)cc2C1=NOCc1ccccc1 [Example 10A, anti-4-(Benzyloxyimino)-6-chloro-3,3-dimethyl-1,3-dihydroquinolin-2-one] |  | > 30400 | 
CC1(C)C(=O)N(Cc2ccccc2)c2ccc(Cl)cc2C1=NOCc1ccccc1 [Example 10B, anti-(1-Benzyl)-4-(benzyloxyimino)-6-chloro-3,3-dimethyl-1,3-dihydroquinolin-2-one] |  | > 23900 | 
CC1(C)C(=S)Nc2ccc(Cl)cc2C1=NOCc1ccccc1 [Example 16] |  | 290 to 2900 | 
CC1(C)C(=O)Nc2ccc(Cl)cc2C1=NOCc1ccccc1[N+](=O)[O-] [Example 20] |  | 2680 to 26800 | 
CC1(C)C(=S)Nc2ccc(Cl)cc2C1=NOCc1ccccc1[N+](=O)[O-] [Example 21] |  | 256 to 2560 | 
CC1(C)C(=O)Nc2ccc(Cl)cc2C1=NOCc1cccc(Cl)c1 [Example 23] |  | 275 to 2750 | 
CC1(C)C(=S)Nc2ccc(Cl)cc2C1=NOCc1cccc(Cl)c1 [Example 24] |  | 26.4 to 264 | 
CC1(C)C(=S)Nc2ccc(Cl)cc2C1=NOCc1ccc(Cl)cc1 [Example 27] |  | 2640 to 26400 | 
CC1(C)C(=O)Nc2ccc(Cl)cc2C1=NOCc1ccccc1Cl [Example 29] |  | 2750 to 27500 | 
CC1(C)C(=S)Nc2ccc(Cl)cc2C1=NOCc1ccccc1Cl [Example 30] |  | 264 to 2640 | 
COCCON=C1c2cc(Cl)ccc2NC(=O)C1(C)C [Example 32] | 1 (≈ 3.37 µM) | 337 to 3370 | 
COCCON=C1c2cc(Cl)ccc2NC(=S)C1(C)C [Example 33] | 0.2 (≈ 0.639 µM) | ~32 | 
CON=C1c2cc(Cl)ccc2NC(=O)C1(C)C [Example 34] |  | 39.6 to 396 | 
CON=C1c2cc(Cl)ccc2NC(=S)C1(C)C [Example 35] |  | 3.72 to 37.2 | 
CCC1C(=O)Nc2ccc(Cl)cc2C1=NO (stereo not drawn) [Example 38] |  | 4190 to 41900 | 
CCON=C1c2cc(Cl)ccc2NC(=O)C1CC (stereo not drawn) [Example 39] | 1 (≈ 3.75 µM) | 37.5 to 375 | 
CCC1C(=O)Nc2ccc(Cl)cc2C1=NOC(C)C (stereo not drawn) [Example 40] |  | 35.6 to 356 | 
CCC1C(=N)c2cc(Cl)ccc2NC1=S (stereo not drawn) [Example 42] |  | 4190 to 41900 | 
CCON=C1c2cc(OC)ccc2NC(=S)C1(C)C [Example 43] |  | 3.59 to 35.9 | 

Molecule | MIC [1] [µg/mL] | IC50 [2] [nM] | Reverse transcriptase assay IC50 [2] [µg/mL]
COc1ccc2c(c1)C(=NOC(C)C)C(C)(C)C(=O)N2 [Example 44] |  | ~36.2 | 
COc1ccc2c(c1)C(=NOC(C)C)C(C)(C)C(=S)N2 [Example 45] |  | 3.42 to 34.2 | 
C=CCON=C1c2cc(Cl)ccc2NC(=O)C1(C)C [Example 47] |  | 35.9 to 359 | 
C=CCON=C1c2cc(Cl)ccc2NC(=S)C1(C)C [Example 48] | 0.04 (≈ 0.136 µM) | 3.39 to 33.9 | 
CSCCON=C1c2cc(Cl)ccc2NC(=O)C1(C)C [Example 49] |  | 320 to 3200 | 
CSCCON=C1c2cc(Cl)ccc2NC(=S)C1(C)C [Example 50] | 0.2 (≈ 0.608 µM) | 30.4 to 304 | 
C#CCON=C1c2cc(Cl)ccc2NC(=O)C1(C)C [Example 51] |  | 36.1 to 361 | 
CCC(C)ON=C1c2cc(Cl)ccc2NC(=O)C1(C)C (stereo not drawn) [Example 52] |  | 33.9 to 339 | 
CC(C)=NN=C1c2cc(Cl)ccc2NC(=S)C1(C)C [Example 62] | 0.04 (≈ 0.136 µM) | 3.4 to 34 | 
CCC(C)ON=C1c2cc(Cl)ccc2NC(=S)C1(C)C (stereo not drawn) [Example 67] | 0.04 (≈ 0.129 µM) | 32.2 to 322 | 
CCON=C1c2cc(Cl)ccc2NC(=NO)C1(C)C [Example 70, anti-6-Chloro-3,3,-dimethyl-4-(ethyloxyimino)-2-hydroxyimino-1,3-dihydroquinoline] |  | 3.55 to 35.5 | 
CSc1ccc2c(c1)C(=NOC(C)C)C(C)(C)C(=O)N2 [Example 78] |  | 34.2 to 342 | 
CSc1ccc2c(c1)C(=NOC(C)C)C(C)(C)C(=S)N2 [Example 82] | < 0.08 | 32.4 to 324 | 
CC(C)ON=C1c2cc(OC(F)(F)F)ccc2NC(=S)C1(C)C [Example 87] | 0.04 (≈ 0.115 µM) | 28.9 to 289 | 
CCON=C1c2cc(Cc3ccncc3)ccc2NC(=O)C1(C)C [Example 103] | 0.04 (≈ 0.124 µM) | 30.9 to 309 | 
CCON=C1c2cc(Cc3ccncc3)ccc2NC(=S)C1(C)C [Example 104] | 0.04 (≈ 0.118 µM) | ~29.5 | 
CCON=C1c2cc(Cl)ccc2NC(=O)C12CCC2 [Example 114] |  | 21.5 | 
CCON=C1c2cc(Cl)ccc2NC(=S)C12CCC2 [Example 115] | 0.04 (≈ 0.136 µM) | 3.39 to 33.9 | 
CC(C)ON=C1c2cc(Cl)ccc2NC(=S)C12CCCC2 [Example 117] |  | 3.1 to 31 | 
CCC1(CC)C(=O)Nc2ccc(Cl)cc2C1=NOC(C)C [Example 119] | 0.008 (≈ 0.0259 µM) | 3.24 to 32.4 | 
CC(C)ON=C1c2cc(Cl)ccc2NC(=S)C12CCC2 [Example 120] |  | 3.24 to 32.4 | 
CCON=C1c2cc(Cl)ccc2NC(=S)C12CCCC2 [Example 122] | 0.008 (≈ 0.0259 µM) |  | 
CC(C)ON=C1c2cc(Cl)ccc2NC(=O)C12CCCC2 [Example 123] |  | 3.26 to 32.6 | 
CCON=C1c2cc(OCC)ccc2NC(=NO)C1(C)C [Example 124] | 0.4 (≈ 1.37 µM) | ~343 | 
CCON=C1c2cc(Cl)ccc2N=C(Nc2ccccc2)C1(C)C [Example 131] | 1 (≈ 2.93 µM) | 29.3 to 293 | 
CCON=C1c2cc(Cl)ccc2N=C(Nc2ccc(Cl)cc2)C1(C)C [Example 132] |  | ~266 | 
anti-6-Chloro-3,3-dimethyl-4-(isopropylazino)-1,3-dihydroquinolin-2-one [Example 12] |  |  | 0.01 to 0.1

From US5602146A, “4-iminoquinolines, processes for their preparation, and their use” (Hoechst Aktiengesellschaft, priority 1992, dated 1997)
